According to patent publication US20070128285A1, “Pharmaceutical composition for oral administration” (priority 2005, published 2007):

Experiment: Stability of setron drug aqueous solutions (0.1 w/w %) at pH 8 to 3, stored at 40° C. for three months
Assay type: physicochemical
Details: 0.1 w/w % aqueous solution
Method: The present inventors have investigated the stability of each setron drug (azasetron, granisetron, tropisetron, ramosetron, or ondansetron) in the aqueous solution of pH 8 to3. That is, an aqueous solution of each setron drug (0.1 w/w %) was adjusted to various pH values (pH 8 to 3) with hydrochloric acid or sodium hydroxide. After storing at 40° C. for three months, the external appearance and taste of the solution were observed. As a result, for each of the setron drugs, the aqueous solution of pH 8 is colored faint yellow, but the aqueous solution of pH 3 to 7 is colorless.

[1] = pH 3 to 7, stored at 40° C. for three months
[2] = pH 8, stored at 40° C. for three months

| Structure (SMILES) | external appearance (color) of the aqueous solution [1] | external appearance (color) of the aqueous solution [2] |
| --- | --- | --- |
| CN1C(=O)COc2c(C(=O)NC3CN4CCC3CC4)cc(Cl)cc21 (stereo not shown) [azasetron] | colorless | faint yellow |
| CN1C2CCCC1CC(NC(=O)c1nn(C)c3ccccc13)C2 (stereo not shown) [granisetron] | colorless | faint yellow |
| Cc1nccn1CC1CCc2c(c3ccccc3n2C)C1=O (stereo not shown) [ondansetron] | colorless | faint yellow |
| Cn1cc(C(=O)[C@@H]2CCc3nc[nH]c3C2)c2ccccc21 [ramosetron] | colorless | faint yellow |
| CN1[C@@H]2CC[C@H]1C[C@@H](OC(=O)c1c[nH]c3ccccc13)C2 [tropisetron] | colorless | faint yellow |
